Data as given in the NIST ThermoML archive (doi:10.1007/s10765-013-1539-3).

Assay: wn = mass fraction of the nth substance listed
Details: Gas, Steady Flow

[C-]#[O+] [carbon monoxide] + [HH]
binary diffusion coefficient [m2/s], w2 = 0.5
Details | 250 K | 300 K | 350 K | 400 K | 500 K | 600 K | 700 K | 800 K | 900 K
100 kPa | 5.6e-05 | 7.7e-05 | 0.000101 | 0.000127 | 0.000188 | 0.000258 | 0.000337 | 0.000425 | 0.000522
4000 kPa | 1.32e-05 | 1.96e-05 | 2.58e-05 | 3.28e-05 | 4.84e-05 | 6.6e-05 | 8.7e-05 | 0.000109 | 0.000134
7000 kPa | 8e-06 | 1.16e-05 | 1.52e-05 | 1.96e-05 | 2.89e-05 | 3.97e-05 | 5.14e-05 | 6.5e-05 | 7.9e-05
10000 kPa | 5.6e-06 | 8.1e-06 | 1.09e-05 | 1.38e-05 | 2.03e-05 | 2.79e-05 | 3.63e-05 | 4.55e-05 | 5.58e-05
15000 kPa | 4e-06 | 5.6e-06 | 7.4e-06 | 9.4e-06 | 1.42e-05 | 1.96e-05 | 2.63e-05 | 3.35e-05 | 4.2e-05

[HH] [hydrogen] + CC
binary diffusion coefficient [m2/s], w1 = 0.5
Details | 250 K | 280 K | 320 K | 400 K | 480 K | 560 K | 640 K | 720 K | 800 K | 900 K
100 kPa | 4.29e-05 | 5.2e-05 | 6.5e-05 | 9.5e-05 | 0.000131 | 0.00017 | 0.000212 | 0.000261 | 0.000313 | 0.000382
3500 kPa | – | – | 1.46e-05 | 2.53e-05 | 3.6e-05 | 4.81e-05 | 6.2e-05 | 7.6e-05 | 9.1e-05 | 0.00011
7000 kPa | – | – | 3.3e-06 | 1.15e-05 | 1.75e-05 | 2.4e-05 | 3.1e-05 | 3.81e-05 | 4.61e-05 | 5.59e-05
10500 kPa | – | – | 2.4e-06 | 6.8e-06 | 1.13e-05 | 1.58e-05 | 2.04e-05 | 2.52e-05 | 3e-05 | 3.72e-05
14000 kPa | – | – | 2.21e-06 | 5e-06 | 8.6e-06 | 1.2e-05 | 1.58e-05 | 1.94e-05 | 2.33e-05 | 2.83e-05

[HH] [hydrogen] + N#N
binary diffusion coefficient [m2/s], w1 = 0.5
Details | 250 K | 300 K | 350 K | 400 K | 500 K | 600 K | 700 K | 800 K | 900 K
100 kPa | 5.86e-05 | 8e-05 | 0.000104 | 0.000131 | 0.000192 | 0.000261 | 0.00034 | 0.000427 | 0.000523
4000 kPa | 1.52e-05 | 2.04e-05 | 2.68e-05 | 3.37e-05 | 4.95e-05 | 6.8e-05 | 8.8e-05 | 0.00011 | 0.000134
7000 kPa | 8.8e-06 | 1.24e-05 | 1.63e-05 | 2.05e-05 | 3.01e-05 | 4.1e-05 | 5.32e-05 | 6.65e-05 | 8.11e-05
10000 kPa | 6e-06 | 8.5e-06 | 1.13e-05 | 1.41e-05 | 2.07e-05 | 2.82e-05 | 3.65e-05 | 4.56e-05 | 5.55e-05
15000 kPa | 4.21e-06 | 6e-06 | 7.9e-06 | 9.8e-06 | 1.45e-05 | 1.96e-05 | 2.51e-05 | 3.15e-05 | 3.8e-05
